One block for each molecule: values may come before it.
Tested on: 377384-186-R-J1-PDC complex spheroid viability
Test: Anticancer human tumor 377384-186-R-J1-PDC patient-derived pancreatic carcinoma cell line growth inhibition [CLK]
Conditions: for IC50: curve of first compound; for viability, T/C: stronger effect = lower value
Outline: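 Multi-cell-type spheroids combined patient-derived tumor cells with HUVEC endothelial cells and human mesenchymal stem cells. Paired agents were dosed in half-log steps down from about clinical Cmax, or from 10 microM where Cmax was unknown.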

[1] = second compound 0.0316 µM, first compound 0.0316 µM
[2] = second compound 0.0316 µM, first compound 0.1 µM
[3] = second compound 0.0316 µM, first compound 0.316 µM
[4] = second compound 0.0316 µM, first compound 1 µM
[5] = second compound 0.0316 µM, first compound 3.16 µM
[6] = second compound 0.0316 µM, first compound 10 µM
[7] = second compound 0.1 µM, first compound 0.0316 µM
[8] = second compound 0.1 µM, first compound 0.1 µM
[9] = second compound 0.1 µM, first compound 0.316 µM
[10] = second compound 0.1 µM, first compound 1 µM
[11] = second compound 0.1 µM, first compound 3.16 µM
[12] = second compound 0.1 µM, first compound 10 µM
[13] = second compound 0.316 µM, first compound 0.0316 µM
[14] = second compound 0.316 µM, first compound 0.1 µM
[15] = second compound 0.316 µM, first compound 0.316 µM
[16] = second compound 0.316 µM, first compound 1 µM
[17] = second compound 0.316 µM, first compound 3.16 µM
[18] = second compound 0.316 µM, first compound 10 µM
[19] = second compound 1 µM, first compound 0.0316 µM
[20] = second compound 1 µM, first compound 0.1 µM
[21] = second compound 1 µM, first compound 0.316 µM
[22] = second compound 1 µM, first compound 1 µM
[23] = second compound 1 µM, first compound 3.16 µM
[24] = second compound 1 µM, first compound 10 µM
[25] = second compound 3.16 µM, first compound 0.0316 µM
[26] = second compound 3.16 µM, first compound 0.1 µM
[27] = second compound 3.16 µM, first compound 0.316 µM
[28] = second compound 3.16 µM, first compound 1 µM
[29] = second compound 3.16 µM, first compound 3.16 µM
[30] = second compound 3.16 µM, first compound 10 µM
[31] = second compound 10 µM, first compound 0.0316 µM
[32] = second compound 10 µM, first compound 0.1 µM
[33] = second compound 10 µM, first compound 0.316 µM
[34] = second compound 10 µM, first compound 1 µM
[35] = second compound 10 µM, first compound 3.16 µM
[36] = second compound 10 µM, first compound 10 µM
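Also: spheroids exposed to agents for 7 days before reading.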
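For viability, T/C in this document: luminescence signal used as a stand-in for viable cells.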

- IC50 (second compound 0.0316 µM): > 10000 nM
- IC50 (second compound 0.1 µM): 2760 nM
- IC50 (second compound 0.316 µM): < 31.6 nM
- IC50 (second compound 1 µM): < 31.6 nM
- IC50 (second compound 3.16 µM): < 31.6 nM
- IC50 (second compound 10 µM): < 31.6 nM
SMILES: C=CC(=O)N1CCN(c2nc(=O)n(-c3c(C)ccnc3C(C)C)c3nc(-c4c(O)cccc4F)c(F)cc23)C(C)C1 (stereo unspecified) + CNC(=O)c1ccc(Nc2nc(OC3CCCC3)c3c(-c4ccc5nc(C)oc5c4)c[nH]c3n2)c(OC)c1
- viability, T/C [1]: 108%
- viability, T/C [2]: 111%
- viability, T/C [3]: 99.1%
- viability, T/C [4]: 111%
- viability, T/C [5]: 116%
- viability, T/C [6]: 91.7%
- viability, T/C [7]: 62.5%
- viability, T/C [8]: 64.7%
- viability, T/C [9]: 56.4%
- viability, T/C [10]: 68.6%
- viability, T/C [11]: 48.3%
- viability, T/C [12]: 36%
- viability, T/C [13]: 22.9%
- viability, T/C [14]: 18.9%
- viability, T/C [15]: 20.5%
- viability, T/C [16]: 25%
- viability, T/C [17]: 24%
- viability, T/C [18]: 21.4%
- viability, T/C [19]: 20.2%
- viability, T/C [20]: 20.1%
- viability, T/C [21]: 18.3%
- viability, T/C [22]: 21.3%
- viability, T/C [23]: 23.1%
- viability, T/C [24]: 21.5%
- viability, T/C [25]: 23.6%
- viability, T/C [26]: 23.5%
- viability, T/C [27]: 22%
- viability, T/C [28]: 24.5%
- viability, T/C [29]: 26.1%
- viability, T/C [30]: 23.1%
- viability, T/C [31]: 18.7%
- viability, T/C [32]: 18.3%
- viability, T/C [33]: 18.4%
- viability, T/C [34]: 20.3%
- viability, T/C [35]: 23.8%
- viability, T/C [36]: 19.7%

- IC50 (second compound 0.0316 µM): 9170 nM
- IC50 (second compound 0.1 µM): 3300 nM
- IC50 (second compound 0.316 µM): < 31.6 nM
- IC50 (second compound 1 µM): < 31.6 nM
- IC50 (second compound 3.16 µM): < 31.6 nM
- IC50 (second compound 10 µM): < 31.6 nM
SMILES: CC(CO)NC(=O)c1cc(-c2ccc(Cl)cc2)nn(-c2cnn(C)c2)c1=O (stereo unspecified) + CNC(=O)c1ccc(Nc2nc(OC3CCCC3)c3c(-c4ccc5nc(C)oc5c4)c[nH]c3n2)c(OC)c1
- viability, T/C [1]: 102%
- viability, T/C [2]: 120%
- viability, T/C [3]: 117%
- viability, T/C [4]: 106%
- viability, T/C [5]: 85.1%
- viability, T/C [6]: 47.1%
- viability, T/C [7]: 64.1%
- viability, T/C [8]: 75.6%
- viability, T/C [9]: 55.4%
- viability, T/C [10]: 58.4%
- viability, T/C [11]: 53.1%
- viability, T/C [12]: 35.9%
- viability, T/C [13]: 23.6%
- viability, T/C [14]: 25.4%
- viability, T/C [15]: 24.7%
- viability, T/C [16]: 22.7%
- viability, T/C [17]: 24.4%
- viability, T/C [18]: 20.5%
- viability, T/C [19]: 26.8%
- viability, T/C [20]: 20.7%
- viability, T/C [21]: 21%
- viability, T/C [22]: 22%
- viability, T/C [23]: 20.5%
- viability, T/C [24]: 17.8%
- viability, T/C [25]: 21%
- viability, T/C [26]: 21.2%
- viability, T/C [27]: 21.7%
- viability, T/C [28]: 23.9%
- viability, T/C [29]: 22.3%
- viability, T/C [30]: 19.6%
- viability, T/C [31]: 22.5%
- viability, T/C [32]: 21.3%
- viability, T/C [33]: 20.4%
- viability, T/C [34]: 19.9%
- viability, T/C [35]: 18.1%
- viability, T/C [36]: 19.1%

- IC50 (second compound 0.0316 µM): 29.9 nM
- IC50 (second compound 0.1 µM): 12.2 nM
- IC50 (second compound 0.316 µM): < 3.16 nM
- IC50 (second compound 1 µM): < 3.16 nM
- IC50 (second compound 3.16 µM): < 3.16 nM
- IC50 (second compound 10 µM): < 3.16 nM
SMILES: COc1c(OCCCN2CCOCC2)ccc2c3n(c(=NC(=O)c4cnc(N)nc4)nc12)CCN3 + CNC(=O)c1ccc(Nc2nc(OC3CCCC3)c3c(-c4ccc5nc(C)oc5c4)c[nH]c3n2)c(OC)c1
- viability, T/C (second compound 0.0316 µM, first compound 0.00316 µM): 74.8%
- viability, T/C (second compound 0.0316 µM, first compound 0.01 µM): 66.1%
- viability, T/C [1]: 47.6%
- viability, T/C [2]: 33.9%
- viability, T/C [3]: 23.1%
- viability, T/C [4]: 14%
- viability, T/C (second compound 0.1 µM, first compound 0.00316 µM): 63.3%
- viability, T/C (second compound 0.1 µM, first compound 0.01 µM): 54.5%
- viability, T/C [7]: 35.7%
- viability, T/C [8]: 27.5%
- viability, T/C [9]: 17.4%
- viability, T/C [10]: 12%
- viability, T/C (second compound 0.316 µM, first compound 0.00316 µM): 19.1%
- viability, T/C (second compound 0.316 µM, first compound 0.01 µM): 19.1%
- viability, T/C [13]: 14.5%
- viability, T/C [14]: 14%
- viability, T/C [15]: 11.6%
- viability, T/C [16]: 10.4%
- viability, T/C (second compound 1 µM, first compound 0.00316 µM): 19%
- viability, T/C (second compound 1 µM, first compound 0.01 µM): 16.6%
- viability, T/C [19]: 16.8%
- viability, T/C [20]: 12.2%
- viability, T/C [21]: 10.7%
- viability, T/C [22]: 9.69%
- viability, T/C (second compound 3.16 µM, first compound 0.00316 µM): 19.9%
- viability, T/C (second compound 3.16 µM, first compound 0.01 µM): 17.6%
- viability, T/C [25]: 13.6%
- viability, T/C [26]: 12.9%
- viability, T/C [27]: 9.91%
- viability, T/C [28]: 9.78%
- viability, T/C (second compound 10 µM, first compound 0.00316 µM): 21.4%
- viability, T/C (second compound 10 µM, first compound 0.01 µM): 17.7%
- viability, T/C [31]: 14.4%
- viability, T/C [32]: 11.6%
- viability, T/C [33]: 10.8%
- viability, T/C [34]: 9.14%
